Assay results: US11498909B2, “Compound acting as antibiotics” (KBP BIOSCIENCES CO., LTD., priority 2018, dated 2022)
Converted amounts (≈) assume the structure as drawn. Where two headings read alike, the source gives them in different places. Each block holds one compound with its values, some of them ahead of it.

Legend:
[1] = Pharmacokinetics (PK) determination in SD rats (Experiment 4); assay type: in vivo; conditions: plasma; for Cl_obs / Vz_obs / t1/2z / λ_z: IV 2 mg/kg; for AUC(0-t) / AUC(0-inf): Sprague-Dawley (SD), rat, iv, 2 mg/kg; for AUC(0-inf): read-out: AUCINF_obs
Protocol: The compound of the present invention, self-prepared and dissolved in a suitable solvent.
Instrument and equipment: API4000 LC-MS/MS
Chromatographic column: Waters XBridge C18(2.1×50 mm, […])
Rat blood collection: Animals were fixed. The animal's tail was heated with a water bathtub 10 minutes before each time point. About 200 μL of the blood was collected through the caudal vein. After the blood collection, the blood was placed in an anticoagulation tube containing heparin sodium. The blood samples were centrifuged at 8000 rpm for 6 minutes at 4° C. to obtain plasma samples. The plasma must be prepared within 30 minutes after the blood collection. The plasma was stored in a refrigerator at −80° C. before the test.
(1) Test samples were removed from the refrigerator (−80° C.), naturally thawed at room temperature, and then vortexed for 5 minutes;
(2) 20 μL sample was precisely pipetted to a 1.5 mL centrifuge tube;
(3) 200 μL of the internal standard solution was added;
(4) The mixture was vortexed for 5 minutes and centrifuged for 5 minutes (12000 revolutions per minute);
(5) 100 μL of the supernate was precisely pipetted, 100 μL of water was added, the mixture was vortexed for 5 minutes, and the sample was sent to LC-MS/MS for analysis.
The results of the concentrations of the test samples (plasma samples) were output with Analyst 1.6.1 of AB Corporation. The meaning value, the standard deviation, the coefficient of variation, and other parameters (not necessary to calculate the parameter that can be directly output from Analyst 1.6.1) were calculated with Microsoft Excel, and the PK parameter is calculated with Pharsight Phoenix 6.1 software.

[2] = test system: Klebsiella pneumoniae; test: In vitro antibacterial activity, agar dilution MIC (Experiment 1); assay type: cell-based
Protocol: (§1) Tested strains: all the clinically separated strains below were purchased from public facilities.
(§2) Escherichia coli ATCC25922, Pseudomonas aeruginosa ATCC27853, Klebsiella pneumoniae ATCC700603, and the like.
(§3) Tested Samples: Imipenem, Ceftazidime: Commercial Products, the Following Experiments were Carried Out According to the Content of an Effective Ingredient in Each Commercial Product;
(§4) The compounds of the present invention, their chemical names, and preparation methods are shown in the preparation example of each compound.
(§5) Experiment method: Agar dilution method, refer to National Committee for Clinical Laboratory Standards. 2006. Methods for Dilution Antimicrobial Susceptibility Tests for Bacteria That Grow Aerobically; Approved Standard—Seventh Edition M7-A7, Vol 26, No. 2, 2006, to determine the MIC of the compound. MIC represents the minimum inhibitory concentration.

[3] = test system: Escherichia coli; test: as above; assay type: cell-based
Protocol: as §1, §2, §3, §4, §5

[4] = test system: Pseudomonas aeruginosa; test: as above; assay type: cell-based
Protocol: as §1, §2, §3, §4, §5

[5] = test system: polymyxin-resistant mcr-1 positive Enterobacteriaceae; test: In vitro antibacterial effect on polymyxin-resistant mcr-1 positive Enterobacteriaceae, agar dilution MIC (Experiment 2); assay type: cell-based, Escherichia coli; conditions: for MIC50 / MIC90: Escherichia coli; for MIC50: read-out: MIC50 Value, polymyxin-resistant mcr-1 positive Escherichia coli, agar dilution; for MIC90: read-out: MIC90 Value, polymyxin-resistant mcr-1 positive Escherichia coli, agar dilution
Protocol: Tested samples: the compounds of the present invention, prepared according to the methods of the preparation examples;
Polymyxin E sulphate, Ampicillin, Cefotaxime, Gentamicin, Ciprofloxacin, Tetracycline, and Bactrim were all commercial products, the following experiments were carried out according to the content of an effective ingredient in each commercial product.
Tested strains: Escherichia coli carrying mcr-1 gene isolated from animals and Escherichia coli ATCC25922, a quality control strain, were provided by South China Agricultural University.
With reference to the agar dilution method in CLSI, the MIC value of the tested drugs to the polymyxin resistant mcr-1 positive Escherichia coli were determined.
Preparation of drug-containing agar plates: a drug solution with the highest concentration was prepared for each compound; the drug solution with the highest concentration was subjected to the double dilution; for each of dilution gradient, 1 mL (20×drug working solution) of the drug solution was added to 19 mL MH agar at 45-50° C.; immediately after addition, the agar and the drug solution were uniformly mixed to give a drug-containing agar plate with final concentrations of […], and the plate was solidified for later use; and in the meanwhile, a growth control group was arranged.
Inoculum preparation and culture: the strains stored at −80° C. were rejuvenated and formulated with broth so that the turbidity reached or exceeded 0.5 #McFarland unit; a 96-well plate was used as the inoculation tank, and the bacterial solution was diluted with sodium chloride injection so that the content of bacteria inoculated on the agar was 10^4 CFU/point. A multi-point inoculation instrument was used to inoculate the bacterial solution to the surface of the labeled drug-containing agar. After the water in the inoculation point was completely absorbed by the agar, the plate was placed upside down in a 37° C. constant-temperature incubator and incubated for 16-20 hours.

[6] = agar dilution (Table 3), read-out: MIC50
[7] = agar dilution (Table 3), read-out: MIC90
[8] = polymyxin-resistant mcr-1 positive Escherichia coli, agar dilution

Compound: C[C@@H](O)[C@H](NC(=O)c1ccc(C#CC#Cc2ccc(CO)n2C)cc1)C(=O)NO [Compound 33, N-((2S,3R)-3-hydroxy-1-(hydroxamino)-1-oxobutan-2-yl)-4-((5-(hydroxymethyl)-1-methyl-1H-pyrrol-2-yl)buta-1,3-diynyl)benzamide]
Cl_obs [1]: 56.5 ± 22.3 mL/min/kg
Vz_obs [1]: 1.21 ± 0.34 L/kg
t1/2z [1]: 15.6 ± 2.4 min
λ_z [1]: 2.75 ± 0.50 h⁻¹
AUC(0-t) [1]: 666 ± 318 ng·h/mL
AUC(0-inf) [1]: 671 ± 315 ng·h/mL
MIC50 [2]: 0.5 µg/mL (≈ 1.26 µM)
MIC90 [2]: 1 µg/mL (≈ 2.53 µM)
MIC50 [3]: 0.125 µg/mL (≈ 0.316 µM)
MIC90 [3]: 0.125 µg/mL (≈ 0.316 µM)
MIC50 [4]: 1 µg/mL (≈ 2.53 µM)
MIC90 [4]: 8 µg/mL (≈ 20.2 µM)

MIC50 ([2]; agar dilution, read-out: MIC50): 0.5 µg/mL (≈ 1.19 µM)
MIC90 ([2]; agar dilution, read-out: MIC90): 2 µg/mL (≈ 4.75 µM)
MIC50 ([3]; agar dilution, read-out: MIC50): 0.125 µg/mL (≈ 0.297 µM)
MIC90 ([3]; agar dilution, read-out: MIC90): 0.25 µg/mL (≈ 0.593 µM)
MIC50 [4, 6]: 1 µg/mL (≈ 2.37 µM)
MIC90 [4, 7]: 8 µg/mL (≈ 19 µM)
Compound: C[C@@H](O)[C@H](NC(=O)c1ccc(C#CC#Cc2ccc(CNC3CC3)o2)cc1)C(=O)NO [Compound 11, 4-((5-((cyclopropylamino)methyl)furan-2-yl)buta-1,3-diynyl)-N-((2S,3R)-3-hydroxy-1-(hydroxamino)-1-oxobutan-2-yl)benzamide]

Compound: CO/N=C(\C(=O)N[C@@H]1C(=O)N2C(C(=O)O)=C(COC(C)=O)CS[C@H]12)c1csc(N)n1 [Cefotaxime]
MIC50 [5]: 2 µg/mL (≈ 4.39 µM)
MIC90 [5]: 128 µg/mL (≈ 281 µM)

Compound: Polymyxin E sulphate
MIC50 Value [5, 8]: 16 µg/mL
MIC90 Value [5, 8]: 32 µg/mL

Compound: CNC(=O)C(C(=O)NO)N(C)C(=O)c1ccc(C#CC#Cc2ccc(CO)o2)cc1 (centres unmarked) [Compound 5, N-methyl-N-(3-methylamino-1-(hydroxyamino)-1,3-dioxopropan-2-yl)-4-((5-(hydroxymethyl)furan-2-yl)buta-1,3-diynyl)benzamide]
Cl_obs [1]: 10.3 ± 1.3 mL/min/kg
Vz_obs [1]: 0.63 ± 0.02 L/kg
t1/2z [1]: 42.6 ± 6.6 min
λ_z [1]: 0.99 ± 0.15 h⁻¹
AUC(0-t) [1]: 8110 ± 1050 ng·h/mL
AUC(0-inf) [1]: 8150 ± 1040 ng·h/mL
MIC90 [5]: 0.5 µg/mL (≈ 1.22 µM)
MIC90 Value [5, 8]: 1 µg/mL (≈ 2.44 µM)
MIC50 ([3]; agar dilution, read-out: MIC50): 2 µg/mL (≈ 4.89 µM)
MIC90 ([3]; agar dilution, read-out: MIC90): 4 µg/mL (≈ 9.77 µM)
MIC50 [4]: 0.125 µg/mL (≈ 0.305 µM)
MIC90 [4, 7]: 1 µg/mL (≈ 2.44 µM)

Compound: C[C@@H](O)[C@H]1C(=O)N2C(C(=O)O)=C(SCCN=CN)C[C@H]12 [Imipenem, reference compound]
MIC50 [5]: 0.125 µg/mL (≈ 0.418 µM)
MIC90 [5]: 4 µg/mL (≈ 13.4 µM)
MIC50 [4, 6]: 2 µg/mL (≈ 6.68 µM)
MIC90 [4, 7]: 16 µg/mL (≈ 53.4 µM)

Compound: O=C(O)c1cn(C2CC2)c2cc(N3CCNCC3)c(F)cc2c1=O [Ciprofloxacin]
MIC50 [5]: 4 µg/mL (≈ 12.1 µM)
MIC90 [5]: 32 µg/mL (≈ 96.6 µM)

MIC50 ([3]; agar dilution, read-out: MIC50): 0.5 µg/mL (≈ 0.983 µM)
MIC90 ([3]; agar dilution, read-out: MIC90): 2 µg/mL (≈ 3.93 µM)
MIC50 [4, 6]: 4 µg/mL (≈ 7.87 µM)
MIC90 [4, 7]: > 16 µg/mL
Compound: C[C@@H](O)[C@H](NC(=O)c1ccc(C#CC#Cc2ccc(CNCCCN3CCOCC3)o2)cc1)C(=O)NO [Compound 22, N-((2S,3R)-3-hydroxy-1-(hydroxyamino)-1-oxobutan-2-yl)-4-((5-((3-morpholinopropylamino)methyl)furan-2-yl)buta-1,3-diynyl)benzamide]
